# In ChEMBL document CHEMBL4052776, “Discovery of 3-morpholino-imidazole[1,5-a]pyrazine BTK inhibitors for rheumatoid arthritis” (Bioorg Med Chem Lett, 2017):
# Tests used:
# [1] = target: T1, Tyrosine-protein kinase BTK (Homo sapiens, UniProt Q06187); assay: Inhibition of recombinant full-length His6-tagged BTK (unknown origin) expressed in baculovirus infected Sf9 cells using biotinylated A5 peptide as substrate preincubated for 60 mins followed by substrate addition measured after 120 mins by LANCE TR-FRET assay
# [2] = target: T1, Tyrosine-protein kinase BTK; assay: Inhibition of BTK in human PBMC assessed as reduction in anti-IgM-induced MIP1beta
# [3] = target: Voltage-gated inwardly rectifying potassium channel KCNH2 (Homo sapiens, UniProt Q12809); assay: Inhibition of human ERG by [35S]-MK499 displacement or iKr channel assay
# [4] = target: Tyrosine-protein kinase Blk (Homo sapiens, UniProt P51451); assay: Inhibition of BLK (unknown origin)
# Homo sapiens [5] = species on record: Homo sapiens; assay: Selectivity ratio of IC50 for BLK (unknown origin) to IC50 for BTK (unknown origin)
# [6] = target: T2, Cytoplasmic tyrosine-protein kinase BMX (Homo sapiens, UniProt P51813); assay: Inhibition of BMX (unknown origin)
# T2 sequence (P51813 whole entry): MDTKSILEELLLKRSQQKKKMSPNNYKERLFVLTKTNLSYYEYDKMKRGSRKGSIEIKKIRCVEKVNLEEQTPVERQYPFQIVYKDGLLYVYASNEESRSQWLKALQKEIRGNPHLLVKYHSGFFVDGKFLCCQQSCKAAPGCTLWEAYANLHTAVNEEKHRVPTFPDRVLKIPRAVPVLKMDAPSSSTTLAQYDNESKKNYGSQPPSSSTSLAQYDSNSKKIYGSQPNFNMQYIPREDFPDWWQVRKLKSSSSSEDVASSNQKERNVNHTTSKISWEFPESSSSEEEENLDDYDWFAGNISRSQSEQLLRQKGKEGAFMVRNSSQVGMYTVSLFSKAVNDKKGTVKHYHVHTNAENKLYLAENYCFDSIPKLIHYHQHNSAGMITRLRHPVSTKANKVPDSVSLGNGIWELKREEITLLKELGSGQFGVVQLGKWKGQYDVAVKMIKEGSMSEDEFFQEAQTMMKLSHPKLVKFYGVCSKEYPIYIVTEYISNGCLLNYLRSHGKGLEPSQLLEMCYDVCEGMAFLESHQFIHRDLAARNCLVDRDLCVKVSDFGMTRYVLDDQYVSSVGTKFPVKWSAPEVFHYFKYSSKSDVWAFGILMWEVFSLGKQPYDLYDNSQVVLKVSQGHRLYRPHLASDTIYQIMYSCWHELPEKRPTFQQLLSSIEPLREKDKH
# Homo sapiens [7] = species on record: Homo sapiens; assay: Selectivity ratio of IC50 for BMX (unknown origin) to IC50 for BTK (unknown origin)
# [8] = target: Tyrosine-protein kinase CSK (Homo sapiens, UniProt P41240); assay: Inhibition of CSK (unknown origin)
# Homo sapiens [9] = species on record: Homo sapiens; assay: Selectivity ratio of IC50 for CSK (unknown origin) to IC50 for BTK (unknown origin)
# [10] = target: Receptor tyrosine-protein kinase erbB-4 (Homo sapiens, UniProt Q15303); assay: Inhibition of ERBB4 (unknown origin)
# Homo sapiens [11] = species on record: Homo sapiens; assay: Selectivity ratio of IC50 for ERBB4 (unknown origin) to IC50 for BTK (unknown origin)
# [12] = target: Tyrosine-protein kinase Fgr (Homo sapiens, UniProt P09769); assay: Inhibition of FGR (unknown origin)
# Homo sapiens [13] = species on record: Homo sapiens; assay: Selectivity ratio of IC50 for FGR (unknown origin) to IC50 for BTK (unknown origin)
# [14] = target: Tyrosine-protein kinase FRK (Homo sapiens, UniProt P42685); assay: Inhibition of FRK (unknown origin)
# Homo sapiens [15] = species on record: Homo sapiens; assay: Selectivity ratio of IC50 for FRK (unknown origin) to IC50 for BTK (unknown origin)
# [16] = target: Tyrosine-protein kinase Fyn (Homo sapiens, UniProt P06241); assay: Inhibition of FYN (unknown origin)
# Homo sapiens [17] = species on record: Homo sapiens; assay: Selectivity ratio of IC50 for FYN (unknown origin) to IC50 for BTK (unknown origin)
# [18] = target: Tyrosine-protein kinase Lck (Homo sapiens, UniProt P06239); assay: Inhibition of LCK (unknown origin)
# Homo sapiens [19] = species on record: Homo sapiens; assay: Selectivity ratio of IC50 for LCK (unknown origin) to IC50 for BTK (unknown origin)
# [20] = target: Tyrosine-protein kinase Lyn (Homo sapiens, UniProt P07948); assay: Inhibition of LYNB (unknown origin)
# Homo sapiens [21] = species on record: Homo sapiens; assay: Selectivity ratio of IC50 for LYNB (unknown origin) to IC50 for BTK (unknown origin)
# [22] = target: Protein-tyrosine kinase 6 (Homo sapiens, UniProt Q13882); assay: Inhibition of PTK6 (unknown origin)
# Homo sapiens [23] = species on record: Homo sapiens; assay: Selectivity ratio of IC50 for PTK6 (unknown origin) to IC50 for BTK (unknown origin)
# [24] = target: Proto-oncogene tyrosine-protein kinase Src (Homo sapiens, UniProt P12931); assay: Inhibition of SRC (unknown origin)
# Homo sapiens [25] = species on record: Homo sapiens; assay: Selectivity ratio of IC50 for SRC (unknown origin) to IC50 for BTK (unknown origin)
# [26] = target: Tyrosine-protein kinase Srms (Homo sapiens, UniProt Q9H3Y6); assay: Inhibition of SRMS (unknown origin)
# Homo sapiens [27] = species on record: Homo sapiens; assay: Selectivity ratio of IC50 for SRMS (unknown origin) to IC50 for BTK (unknown origin)
# [28] = target: T3, Tyrosine-protein kinase Tec (Homo sapiens, UniProt P42680); assay: Inhibition of TEC (unknown origin)
# T3 sequence (P42680 whole entry): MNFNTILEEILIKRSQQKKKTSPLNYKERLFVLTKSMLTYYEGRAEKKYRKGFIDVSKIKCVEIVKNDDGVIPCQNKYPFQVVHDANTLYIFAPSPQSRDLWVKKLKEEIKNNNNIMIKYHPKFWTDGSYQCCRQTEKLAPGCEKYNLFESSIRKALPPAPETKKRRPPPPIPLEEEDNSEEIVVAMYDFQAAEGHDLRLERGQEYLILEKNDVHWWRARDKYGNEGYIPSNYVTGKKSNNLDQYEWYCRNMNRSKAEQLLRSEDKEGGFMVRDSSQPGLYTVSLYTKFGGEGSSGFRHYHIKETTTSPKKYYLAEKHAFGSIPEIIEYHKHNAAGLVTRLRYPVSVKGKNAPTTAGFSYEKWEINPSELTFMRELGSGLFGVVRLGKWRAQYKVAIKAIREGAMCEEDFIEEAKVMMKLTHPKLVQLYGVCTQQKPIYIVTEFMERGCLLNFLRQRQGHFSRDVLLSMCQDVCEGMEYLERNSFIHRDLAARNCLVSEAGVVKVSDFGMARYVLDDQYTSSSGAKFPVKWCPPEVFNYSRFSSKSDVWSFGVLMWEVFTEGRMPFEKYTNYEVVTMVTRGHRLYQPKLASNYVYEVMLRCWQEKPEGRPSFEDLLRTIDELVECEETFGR
# Homo sapiens [29] = species on record: Homo sapiens; assay: Selectivity ratio of IC50 for TEC (unknown origin) to IC50 for BTK (unknown origin)
# [30] = target: T4, Tyrosine-protein kinase TXK (Homo sapiens, UniProt P42681); assay: Inhibition of TXK (unknown origin)
# T4 sequence (P42681 whole entry): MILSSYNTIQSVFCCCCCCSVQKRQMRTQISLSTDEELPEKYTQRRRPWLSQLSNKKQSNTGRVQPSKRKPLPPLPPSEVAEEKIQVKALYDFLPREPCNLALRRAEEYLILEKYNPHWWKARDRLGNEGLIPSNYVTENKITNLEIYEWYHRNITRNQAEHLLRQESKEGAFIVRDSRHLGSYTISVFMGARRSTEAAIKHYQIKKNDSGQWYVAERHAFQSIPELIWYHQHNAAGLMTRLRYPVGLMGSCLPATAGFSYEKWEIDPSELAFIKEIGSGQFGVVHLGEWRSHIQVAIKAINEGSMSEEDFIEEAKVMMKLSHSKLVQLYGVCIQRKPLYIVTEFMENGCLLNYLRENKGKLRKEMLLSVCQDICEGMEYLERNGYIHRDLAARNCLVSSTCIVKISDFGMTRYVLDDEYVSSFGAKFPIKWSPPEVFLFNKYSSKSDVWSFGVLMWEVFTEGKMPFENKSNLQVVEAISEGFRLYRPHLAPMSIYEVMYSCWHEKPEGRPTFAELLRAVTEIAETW
# Homo sapiens [31] = species on record: Homo sapiens; assay: Selectivity ratio of IC50 for TXK (unknown origin) to IC50 for BTK (unknown origin)
# [32] = target: Tyrosine-protein kinase Yes (Homo sapiens, UniProt P07947); assay: Inhibition of YES1 (unknown origin)
# Homo sapiens [33] = species on record: Homo sapiens; assay: Selectivity ratio of IC50 for YES1 (unknown origin) to IC50 for BTK (unknown origin)
# [34] = Total clearance in rat plasma at 10 mg/kg; format: ADME, organism-based
# [35] = Half life in rat at 10 mg/kg; format: ADME, organism-based; details: in vivo
# [36] = Oral bioavailability in rat at 10 mg/kg; format: ADME, organism-based; details: in vivo
# [37] = Total clearance in dog plasma at 2 mg/kg administered as cassette dose; format: ADME, organism-based, Canis lupus familiaris
# [38] = Half life in dog at 2 mg/kg administered as cassette dose; format: ADME, organism-based, Canis lupus familiaris; details: in vivo
# [39] = Total clearance in dog plasma at 2 mg/kg; format: ADME, organism-based, Canis lupus familiaris
# [40] = Half life in dog at 2 mg/kg; format: ADME, organism-based, Canis lupus familiaris; details: in vivo
# [41] = Oral bioavailability in dog at 2 mg/kg; format: ADME, organism-based, Canis lupus familiaris; details: in vivo
# T1 sequence (Q06187 whole entry): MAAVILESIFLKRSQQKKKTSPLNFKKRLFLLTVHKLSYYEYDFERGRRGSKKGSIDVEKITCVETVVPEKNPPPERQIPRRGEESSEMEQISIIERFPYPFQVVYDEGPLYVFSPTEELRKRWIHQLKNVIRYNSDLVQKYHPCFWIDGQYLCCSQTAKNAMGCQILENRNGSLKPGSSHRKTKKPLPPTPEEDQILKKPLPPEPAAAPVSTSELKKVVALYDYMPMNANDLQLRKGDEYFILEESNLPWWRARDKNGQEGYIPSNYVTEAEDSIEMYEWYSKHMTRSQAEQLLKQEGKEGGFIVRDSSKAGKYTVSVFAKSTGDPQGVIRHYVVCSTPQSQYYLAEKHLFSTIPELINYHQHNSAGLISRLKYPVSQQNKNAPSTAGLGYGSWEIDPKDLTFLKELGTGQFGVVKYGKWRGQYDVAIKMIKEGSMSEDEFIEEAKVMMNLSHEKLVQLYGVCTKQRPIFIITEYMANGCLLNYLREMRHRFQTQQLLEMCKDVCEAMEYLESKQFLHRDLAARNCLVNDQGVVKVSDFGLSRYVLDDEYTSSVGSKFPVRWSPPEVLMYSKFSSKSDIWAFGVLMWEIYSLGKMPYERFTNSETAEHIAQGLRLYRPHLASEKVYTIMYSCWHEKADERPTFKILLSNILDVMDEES
# Chain of Protein-tyrosine kinase 6 (Q13882 whole entry): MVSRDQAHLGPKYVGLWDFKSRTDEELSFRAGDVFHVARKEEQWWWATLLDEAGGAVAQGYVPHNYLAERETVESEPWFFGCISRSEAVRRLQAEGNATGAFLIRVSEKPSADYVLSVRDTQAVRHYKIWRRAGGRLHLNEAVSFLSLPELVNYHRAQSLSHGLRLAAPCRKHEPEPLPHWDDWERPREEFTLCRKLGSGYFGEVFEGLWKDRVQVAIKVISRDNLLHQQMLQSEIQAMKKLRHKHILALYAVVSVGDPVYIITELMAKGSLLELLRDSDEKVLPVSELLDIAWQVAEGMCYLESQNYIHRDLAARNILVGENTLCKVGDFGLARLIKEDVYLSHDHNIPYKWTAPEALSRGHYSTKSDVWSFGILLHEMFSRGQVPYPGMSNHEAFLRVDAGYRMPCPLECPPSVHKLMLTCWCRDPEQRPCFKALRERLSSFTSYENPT
# Chain of Tyrosine-protein kinase Lyn (P07948 whole entry): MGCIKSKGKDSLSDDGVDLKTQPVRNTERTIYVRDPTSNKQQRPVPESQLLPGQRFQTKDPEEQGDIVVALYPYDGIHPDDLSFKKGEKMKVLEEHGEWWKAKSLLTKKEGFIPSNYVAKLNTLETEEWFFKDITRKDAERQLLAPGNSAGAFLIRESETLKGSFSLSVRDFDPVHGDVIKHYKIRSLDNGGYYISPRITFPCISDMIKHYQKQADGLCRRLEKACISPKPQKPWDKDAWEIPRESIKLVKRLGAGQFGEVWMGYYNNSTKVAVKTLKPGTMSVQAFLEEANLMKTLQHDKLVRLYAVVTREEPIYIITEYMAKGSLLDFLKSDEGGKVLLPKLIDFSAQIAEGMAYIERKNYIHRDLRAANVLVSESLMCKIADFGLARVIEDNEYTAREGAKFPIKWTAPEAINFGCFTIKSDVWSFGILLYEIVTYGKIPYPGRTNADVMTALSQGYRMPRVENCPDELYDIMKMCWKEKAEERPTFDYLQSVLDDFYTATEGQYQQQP
# Chain of Receptor tyrosine-protein kinase erbB-4 (Q15303 whole entry): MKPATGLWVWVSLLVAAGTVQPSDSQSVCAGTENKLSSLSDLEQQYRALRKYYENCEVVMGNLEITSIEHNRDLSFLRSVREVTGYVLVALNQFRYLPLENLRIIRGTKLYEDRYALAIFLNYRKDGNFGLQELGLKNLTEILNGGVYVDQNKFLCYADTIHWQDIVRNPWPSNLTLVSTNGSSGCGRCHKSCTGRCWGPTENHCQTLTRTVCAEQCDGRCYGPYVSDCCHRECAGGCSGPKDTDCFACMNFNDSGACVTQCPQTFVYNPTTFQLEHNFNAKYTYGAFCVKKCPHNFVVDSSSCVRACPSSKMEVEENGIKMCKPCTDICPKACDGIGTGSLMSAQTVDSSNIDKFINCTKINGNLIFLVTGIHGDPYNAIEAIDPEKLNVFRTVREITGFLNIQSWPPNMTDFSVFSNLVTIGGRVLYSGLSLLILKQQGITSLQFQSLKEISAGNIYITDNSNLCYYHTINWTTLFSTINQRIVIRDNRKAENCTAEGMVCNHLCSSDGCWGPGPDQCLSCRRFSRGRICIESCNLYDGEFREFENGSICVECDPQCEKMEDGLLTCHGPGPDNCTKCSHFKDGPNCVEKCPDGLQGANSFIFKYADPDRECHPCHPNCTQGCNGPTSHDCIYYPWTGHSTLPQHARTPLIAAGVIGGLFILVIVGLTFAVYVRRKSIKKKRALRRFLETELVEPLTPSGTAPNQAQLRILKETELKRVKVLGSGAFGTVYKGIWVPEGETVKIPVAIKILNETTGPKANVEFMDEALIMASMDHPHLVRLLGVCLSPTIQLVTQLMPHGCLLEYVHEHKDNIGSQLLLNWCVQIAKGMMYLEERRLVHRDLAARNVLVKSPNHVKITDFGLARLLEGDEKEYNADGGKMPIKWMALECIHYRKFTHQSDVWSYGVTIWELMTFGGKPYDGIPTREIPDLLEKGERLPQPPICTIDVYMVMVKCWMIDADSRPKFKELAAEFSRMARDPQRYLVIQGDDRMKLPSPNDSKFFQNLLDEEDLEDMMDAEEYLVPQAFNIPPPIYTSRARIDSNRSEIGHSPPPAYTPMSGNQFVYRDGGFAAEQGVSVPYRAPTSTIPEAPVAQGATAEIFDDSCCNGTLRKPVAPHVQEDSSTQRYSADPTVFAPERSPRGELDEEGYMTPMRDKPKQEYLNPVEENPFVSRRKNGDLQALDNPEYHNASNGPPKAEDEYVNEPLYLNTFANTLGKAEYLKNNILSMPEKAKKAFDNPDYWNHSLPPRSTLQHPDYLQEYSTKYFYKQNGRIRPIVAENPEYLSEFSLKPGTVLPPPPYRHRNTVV
# Chain of Tyrosine-protein kinase Lck (P06239 whole entry): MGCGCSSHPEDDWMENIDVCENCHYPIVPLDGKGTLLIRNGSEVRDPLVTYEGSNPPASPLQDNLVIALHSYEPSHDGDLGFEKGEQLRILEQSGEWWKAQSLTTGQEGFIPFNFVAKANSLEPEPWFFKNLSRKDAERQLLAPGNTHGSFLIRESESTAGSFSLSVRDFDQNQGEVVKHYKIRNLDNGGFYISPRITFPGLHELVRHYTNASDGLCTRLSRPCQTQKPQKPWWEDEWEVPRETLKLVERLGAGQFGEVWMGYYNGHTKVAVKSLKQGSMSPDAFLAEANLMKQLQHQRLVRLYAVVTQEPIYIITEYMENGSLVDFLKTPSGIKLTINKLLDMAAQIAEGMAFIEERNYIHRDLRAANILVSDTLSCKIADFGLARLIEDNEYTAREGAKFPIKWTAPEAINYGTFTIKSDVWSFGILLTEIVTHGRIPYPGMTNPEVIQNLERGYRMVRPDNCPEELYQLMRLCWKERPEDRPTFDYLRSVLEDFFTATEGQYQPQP
# Chain of Tyrosine-protein kinase Srms (Q9H3Y6 whole entry): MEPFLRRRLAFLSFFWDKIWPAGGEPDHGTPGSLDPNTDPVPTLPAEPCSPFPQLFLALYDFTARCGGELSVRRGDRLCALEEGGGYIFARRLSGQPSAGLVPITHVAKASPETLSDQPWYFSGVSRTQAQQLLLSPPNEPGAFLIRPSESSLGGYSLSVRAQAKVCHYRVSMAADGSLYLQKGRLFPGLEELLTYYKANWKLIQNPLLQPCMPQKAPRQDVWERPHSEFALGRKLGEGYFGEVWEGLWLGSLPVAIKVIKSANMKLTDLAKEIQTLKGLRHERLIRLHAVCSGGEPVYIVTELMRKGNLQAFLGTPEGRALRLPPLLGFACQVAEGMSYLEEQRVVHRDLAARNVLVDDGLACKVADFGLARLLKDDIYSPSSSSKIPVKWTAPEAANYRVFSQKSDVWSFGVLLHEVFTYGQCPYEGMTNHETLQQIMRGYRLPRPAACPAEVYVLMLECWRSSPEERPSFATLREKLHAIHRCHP
# Chain of Tyrosine-protein kinase Fyn (P06241 whole entry): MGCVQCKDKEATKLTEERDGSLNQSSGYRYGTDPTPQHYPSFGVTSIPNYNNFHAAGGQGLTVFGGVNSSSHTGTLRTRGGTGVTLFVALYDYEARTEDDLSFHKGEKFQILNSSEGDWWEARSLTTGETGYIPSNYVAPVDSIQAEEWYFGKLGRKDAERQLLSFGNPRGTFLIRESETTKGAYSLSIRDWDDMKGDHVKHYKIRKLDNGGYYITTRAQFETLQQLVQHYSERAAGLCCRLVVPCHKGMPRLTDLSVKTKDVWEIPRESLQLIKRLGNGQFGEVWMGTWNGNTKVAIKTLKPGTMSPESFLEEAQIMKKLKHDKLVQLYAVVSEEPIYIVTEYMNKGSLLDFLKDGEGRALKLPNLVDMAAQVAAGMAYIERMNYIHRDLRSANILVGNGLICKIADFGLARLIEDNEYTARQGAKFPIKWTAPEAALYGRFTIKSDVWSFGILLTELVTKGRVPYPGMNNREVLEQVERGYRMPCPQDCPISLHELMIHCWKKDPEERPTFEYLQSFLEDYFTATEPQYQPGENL
# Chain of Proto-oncogene tyrosine-protein kinase Src (P12931 2-536 limits assumed): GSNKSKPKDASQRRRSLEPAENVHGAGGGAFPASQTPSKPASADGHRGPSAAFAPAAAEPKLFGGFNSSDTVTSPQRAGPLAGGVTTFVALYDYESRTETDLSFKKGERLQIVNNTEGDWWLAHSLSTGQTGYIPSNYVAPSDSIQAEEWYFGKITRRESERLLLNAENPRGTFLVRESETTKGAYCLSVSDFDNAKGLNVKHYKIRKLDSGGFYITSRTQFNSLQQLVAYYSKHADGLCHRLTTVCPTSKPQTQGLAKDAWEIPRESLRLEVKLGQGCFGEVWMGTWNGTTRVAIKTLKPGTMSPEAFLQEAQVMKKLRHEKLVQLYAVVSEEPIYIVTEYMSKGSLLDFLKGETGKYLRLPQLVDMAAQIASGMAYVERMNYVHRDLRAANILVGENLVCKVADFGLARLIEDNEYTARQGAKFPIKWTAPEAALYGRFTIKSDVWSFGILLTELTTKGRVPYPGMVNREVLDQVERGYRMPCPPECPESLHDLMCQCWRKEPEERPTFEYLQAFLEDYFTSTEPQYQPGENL
IC50 [1],IC50 [2],IC50 [4],Ratio IC50 (Homo sapiens [5]),IC50 [6],Ratio IC50 (Homo sapiens [7]),IC50 [8],Ratio IC50 (Homo sapiens [9]),IC50 [10],Ratio IC50 (Homo sapiens [11]),IC50 [12],Ratio IC50 (Homo sapiens [13]),IC50 [14],Ratio IC50 (Homo sapiens [15]),IC50 [16],Ratio IC50 (Homo sapiens [17]),IC50 [18],Ratio IC50 (Homo sapiens [19]),IC50 [20],Structure (SMILES),IC50 [3],also measured
0.37 to 0.4 nM,14 nM,78 nM,212,331 nM,895,626 nM,2230,169 nM,457,69 nM,187,214 nM,578,571 nM,1540,28 nM,75,268 nM,COCC(=O)N1CCO[C@@H](c2nc(-c3ccc(C(=O)Nc4cc(C(F)(F)F)ccn4)cc3F)c3c(N)nccn23)C1,24000 nM,Ratio IC50 (Homo sapiens [21]): 723; IC50 [22]: 77 nM; Ratio IC50 (Homo sapiens [23]): 209; IC50 [24]: 123 nM; Ratio IC50 (Homo sapiens [25]): 333; IC50 [26]: 76 nM; Ratio IC50 (Homo sapiens [27]): 205; IC50 [28]: 232 nM; Ratio IC50 (Homo sapiens [29]): 626; IC50 [30]: 256 nM; Ratio IC50 (Homo sapiens [31]): 691; IC50 [32]: 73 nM; Ratio IC50 (Homo sapiens [33]): 198; clearance [34]: 8.2 mL/min/kg; half-life [35]: 0.8 h; bioavailability [36]: 42%; clearance [37]: 13.8 mL/min/kg; half-life [38]: 2.5 h
–,–,–,–,–,–,–,–,–,–,–,–,–,–,–,–,–,–,–,C[C@H]1CO[C@@H](c2nc(-c3ccc(C(=O)Nc4cc(C(F)(F)F)ccn4)cc3F)c3c(N)nccn23)CN1C(=O)C1CC1,–,clearance [34]: 4.2 mL/min/kg; half-life [35]: 3.9 h; bioavailability [36]: 40%; clearance [39]: 1.6 mL/min/kg; half-life [40]: 8.8 h; bioavailability [41]: 88%
0.2 to 0.22 nM,13 nM,9 nM,39,20 nM,93,261 nM,1180,71 nM,322,28 nM,127,151 nM,687,188 nM,853,11 nM,51,74 nM,COCC(=O)N1CCC[C@@H](c2nc(-c3ccc(C(=O)Nc4cc(C(F)(F)F)ccn4)cc3F)c3c(N)nccn23)C1,4500 nM,Ratio IC50 (Homo sapiens [21]): 335; IC50 [22]: 60 nM; Ratio IC50 (Homo sapiens [23]): 273; IC50 [24]: 55 nM; Ratio IC50 (Homo sapiens [25]): 251; IC50 [26]: 19 nM; Ratio IC50 (Homo sapiens [27]): 86; IC50 [28]: 63 nM; Ratio IC50 (Homo sapiens [29]): 287; IC50 [30]: 45 nM; Ratio IC50 (Homo sapiens [31]): 203; IC50 [32]: 37 nM; Ratio IC50 (Homo sapiens [33]): 167
